Measured values: US11078170B2 (Assembly Biosciences, Inc., priority 2017, dated 2021)
pEC50: −log10 of the molar value.

Tested on: HBV viral production from HepAD38 cells
Test: Activity of test compounds on viral production from HepAD38 cells (viral load by qPCR of HBV core sequence in supernatant)
Format: cell-based
Conditions: Hepatitis B virus, 120 h, 5 days incubation, HBV DNA in supernatant by qPCR, top concentration 10 μM, read-out: Viral Load EC50 Activity range
Procedure, shortened: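 HepAD38 cells, 50,000/well in tetracycline-free 2% FBS medium, treated 5 days at 37° C. with compound from 10 μM top concentration. HBV DNA in supernatant quantified by TaqMan qPCR of core sequence against DNA standards, relative to DMSO wells; CellTiter-Glo viability read in parallel. EC50/CC50 from four-parameter logistic fit.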

Compound | pEC50
O=C(Nc1ccc(F)c(Cl)c1)[C@H]1C[C@@H](c2nccs2)NS(=O)(=O)N1CCCO [HBV-CSU-078-ISO-II, Cis-N-(3-Chloro-4-fluorophenyl)-2-(3-hydroxypropyl)-5-(thiazol-2-yl)-1,2,6-thiadiazinane-3-carboxamide 1,1-dioxide] | < 5.30
COC(C)(C)CCN1[C@@H](C(=O)Nc2ccc(F)c(Cl)c2)C[C@@H](c2nccs2)NS1(=O)=O [HBV-CSU-083-ISO-I, Cis-N-(3-Chloro-4-fluorophenyl)-2-(3-methoxy-3-methylbutyl)-5-(thiazol-2-yl)-1,2,6-thiadiazinane-3-carboxamide 1,1-dioxide] | < 5.30
COC(C)(C)CCN1[C@H](C(=O)Nc2ccc(F)c(Cl)c2)C[C@H](c2nccs2)NS1(=O)=O [HBV-CSU-083-ISO-II, Cis-N-(3-Chloro-4-fluorophenyl)-2-(3-methoxy-3-methylbutyl)-5-(thiazol-2-yl)-1,2,6-thiadiazinane-3-carboxamide 1,1-dioxide] | < 5.30
C#CCN1[C@@H](C(=O)Nc2ccc(F)c(Cl)c2)C[C@@H](c2nccs2)NS1(=O)=O [HBV-CSU-089-ISO-II, Cis-N-(3-chloro-4-fluorophenyl)-2-(prop-2-yn-1-yl)-5-(thiazol-2-yl)-1,2,6-thiadiazinane-3-carboxamide 1,1-dioxide] | < 5.30
C#CCCN1C(C(=O)Nc2ccc(F)c(Cl)c2)CC(c2nccs2)NS1(=O)=O (stereo not drawn) [HBV-CSU-090, Cis-2-(But-3-yn-1-yl)-N-(3-chloro-4-fluorophenyl)-5-(thiazol-2-yl)-1,2,6-thiadiazinane-3-carboxamide 1,1-dioxide] | > 6.00
C#CCCN1[C@H](C(=O)Nc2ccc(F)c(Cl)c2)C[C@H](c2nccs2)NS1(=O)=O [HBV-CSU-090-ISO-I, Cis-2-(But-3-yn-1-yl)-N-(3-chloro-4-fluorophenyl)-5-(thiazol-2-yl)-1,2,6-thiadiazinane-3-carboxamide 1,1-dioxide] | > 6.00
C#CCCN1[C@@H](C(=O)Nc2ccc(F)c(Cl)c2)C[C@@H](c2nccs2)NS1(=O)=O [HBV-CSU-090-ISO-II, Cis-2-(But-3-yn-1-yl)-N-(3-chloro-4-fluorophenyl)-5-(thiazol-2-yl)-1,2,6-thiadiazinane-3-carboxamide 1,1-dioxide] | < 5.30
O=C(Nc1ccc(F)c(Cl)c1)[C@@H]1C[C@H](c2nccs2)NS(=O)(=O)N1CCc1c[nH]nn1 [HBV-CSU-092-ISO-I, Cis-2-(2-(1H-1,2,3-Triazol-4-yl)ethyl)-N-(3-chloro-4-fluorophenyl)-5-(thiazol-2-yl)-1,2,6-thiadiazinane-3-carboxamide 1,1-dioxide] | > 6.00
O=C(Nc1ccc(F)c(Cl)c1)[C@H]1C[C@@H](c2nccs2)NS(=O)(=O)N1CCc1c[nH]nn1 [HBV-CSU-092-ISO-II, Cis-2-(2-(1H-1,2,3-Triazol-4-yl)ethyl)-N-(3-chloro-4-fluorophenyl)-5-(thiazol-2-yl)-1,2,6-thiadiazinane-3-carboxamide 1,1-dioxide] | < 5.30
N#CCN1[C@H](C(=O)Nc2ccc(F)c(Cl)c2)C[C@H](c2nccs2)NS1(=O)=O [HBV-CSU-093-ISO-I, Cis-N-(3-Chloro-4-fluorophenyl)-2-(cyanomethyl)-5-(thiazol-2-yl)-1,2,6-thiadiazinane-3-carboxamide 1,1-dioxide] | 5.30 to 6.00
N#CCN1[C@@H](C(=O)Nc2ccc(F)c(Cl)c2)C[C@@H](c2nccs2)NS1(=O)=O [HBV-CSU-093-ISO-II, Cis-N-(3-Chloro-4-fluorophenyl)-2-(cyanomethyl)-5-(thiazol-2-yl)-1,2,6-thiadiazinane-3-carboxamide 1,1-dioxide] | < 5.30
C=CCN1[C@@H](C(=O)Nc2ccc(F)c(Cl)c2)C[C@@H](c2nccs2)NS1(=O)=O [HBV-CSU-094-ISO-I, Cis-2-Allyl-N-(3-chloro-4-fluorophenyl)-5-(thiazol-2-yl)-1,2,6-thiadiazinane-3-carboxamide 1,1-dioxide] | < 5.30
C=CCN1[C@H](C(=O)Nc2ccc(F)c(Cl)c2)C[C@H](c2nccs2)NS1(=O)=O [HBV-CSU-094-ISO-II, Cis-2-Allyl-N-(3-chloro-4-fluorophenyl)-5-(thiazol-2-yl)-1,2,6-thiadiazinane-3-carboxamide 1,1-dioxide] | > 6.00
O=C(Nc1ccc(F)c(Cl)c1)[C@@H]1C[C@H](c2nccs2)NS(=O)(=O)N1CCOCc1ccccc1 [HBV-CSU-095-ISO-II, Cis-2-(2-(benzyloxy)ethyl)-N-(3-chloro-4-fluorophenyl)-5-(thiazol-2-yl)-1,2,6-thiadiazinane-3-carboxamide 1,1-dioxide] | 5.30 to 6.00
O=C(Nc1ccc(F)c(Cl)c1)C1CC(c2nccs2)NS(=O)(=O)N1 (stereo not drawn) [HBV-CSU-096, Cis-N-(3-Chloro-4-fluorophenyl)-5-(thiazol-2-yl)-1,2,6-thiadiazinane-3-carboxamide 1,1-dioxide] | 5.30 to 6.00
O=C(Nc1ccc(F)c(Cl)c1)[C@H]1C[C@@H](c2nccs2)NS(=O)(=O)N1 [HBV-CSU-096-ISO-I, Cis-N-(3-Chloro-4-fluorophenyl)-5-(thiazol-2-yl)-1,2,6-thiadiazinane-3-carboxamide 1,1-dioxide] | < 5.30

Compound | pEC50
O=C(Nc1ccc(F)c(Cl)c1)[C@@H]1C[C@H](c2nccs2)NS(=O)(=O)N1 [HBV-CSU-096-ISO-II, Cis-N-(3-Chloro-4-fluorophenyl)-5-(thiazol-2-yl)-1,2,6-thiadiazinane-3-carboxamide 1,1-dioxide] | > 6.00
O=C(Nc1ccc(F)c(Cl)c1)C1CC(c2nccs2)NS(=O)(=O)N1CCO (stereo not drawn) [HBV-CSU-097, Cis-N-(3-Chloro-4-fluorophenyl)-2-(2-hydroxyethyl)-5-(thiazol-2-yl)-1,2,6-thiadiazinane-3-carboxamide 1,1-dioxide] | < 5.30
O=C(Nc1ccc(F)c(Cl)c1)[C@H]1C[C@@H](c2nccs2)NS(=O)(=O)N1CCO [HBV-CSU-097-ISO-I, Cis-N-(3-Chloro-4-fluorophenyl)-2-(2-hydroxyethyl)-5-(thiazol-2-yl)-1,2,6-thiadiazinane-3-carboxamide 1,1-dioxide] | < 5.30
CCN(CC)CCCN1[C@@H](C(=O)Nc2ccc(F)c(Cl)c2)C[C@@H](c2nccs2)NS1(=O)=O [HBV-CSU-101-ISO-I, Cis-N-(3-Chloro-4-fluorophenyl)-2-(3-(diethylamino)propyl)-5-(thiazol-2-yl)-1,2,6-thiadiazinane-3-carboxamide 1,1-dioxide] | < 5.30
O=C(Nc1ccc(F)c(Cl)c1)C1CC(c2nccs2)NS(=O)(=O)N1CCCN1CCCC1 (stereo not drawn) [HBV-CSU-102, Cis-N-(3-Chloro-4-fluorophenyl)-2-(3-(pyrrolidin-1-yl)propyl)-5-(thiazol-2-yl)-1,2,6-thiadiazinane-3-carboxamide 1,1-dioxide] | < 5.30
O=C(Nc1ccc(F)c(Cl)c1)[C@H]1C[C@@H](c2nccs2)NS(=O)(=O)N1CCCN1CCCC1 [HBV-CSU-102-ISO-I, Cis-N-(3-Chloro-4-fluorophenyl)-2-(3-(pyrrolidin-1-yl)propyl)-5-(thiazol-2-yl)-1,2,6-thiadiazinane-3-carboxamide 1,1-dioxide] | < 5.30
O=C(Nc1ccc(F)c(Cl)c1)[C@@H]1C[C@H](c2nccs2)NS(=O)(=O)N1CCCN1CCCC1 [HBV-CSU-102-ISO-II, Cis-N-(3-Chloro-4-fluorophenyl)-2-(3-(pyrrolidin-1-yl)propyl)-5-(thiazol-2-yl)-1,2,6-thiadiazinane-3-carboxamide 1,1-dioxide] | < 5.30
O=C(Nc1ccc(F)c(Cl)c1)C1CC(c2nccs2)NS(=O)(=O)N1CCCN1CCOCC1 (stereo not drawn) [HBV-CSU-103, Cis-N-(3-Chloro-4-fluorophenyl)-2-(3-morpholinopropyl)-5-(thiazol-2-yl)-1,2,6-thiadiazinane-3-carboxamide 1,1-dioxide] | < 5.30
O=C(Nc1ccc(F)c(Cl)c1)[C@@H]1C[C@H](c2nccs2)NS(=O)(=O)N1CCCN1CCOCC1 [HBV-CSU-103-ISO-II] | 5.30 to 6.00
O=C(Nc1ccc(F)c(Cl)c1)[C@H]1C[C@@H](c2nccs2)NS(=O)(=O)N1CCCN1CCOCC1 [HBV-CSU-103-ISO-I] | < 5.30
COc1ccc(CN2C(C(=O)Nc3ccc(F)c(Cl)c3)CC(c3nccs3)NS2(=O)=O)cc1 (stereo not drawn) [HBV-CSU-108, Cis-N-(3-chloro-4-fluorophenyl)-2-(4-methoxybenzyl)-5-(thiazol-2-yl)-1,2,6-thiadiazinane-3-carboxamide 1,1-dioxide] | < 5.30
CSCCN1[C@@H](C(=O)Nc2ccc(F)c(Cl)c2)C[C@@H](c2nccs2)NS1(=O)=O [HBV-CSU-109-ISO-I, Cis-N-(3-Chloro-4-fluorophenyl)-2-(2-(methylthio)ethyl)-5-(thiazol-2-yl)-1,2,6-thiadiazinane-3-carboxamide 1,1-dioxide] | < 5.30
CSCCN1[C@H](C(=O)Nc2ccc(F)c(Cl)c2)C[C@H](c2nccs2)NS1(=O)=O [HBV-CSU-109-ISO-II, Cis-N-(3-Chloro-4-fluorophenyl)-2-(2-(methylthio)ethyl)-5-(thiazol-2-yl)-1,2,6-thiadiazinane-3-carboxamide 1,1-dioxide] | > 6.00
O=C(O)CN1C(C(=O)Nc2ccc(F)c(Cl)c2)CC(c2nccs2)NS1(=O)=O (stereo not drawn) [HBV-CSU-110, Cis-2-(3-((3-Chloro-4-fluorophenyl)carbamoyl)-1,1-dioxido-5-(thiazol-2-yl)-1,2,6-thiadiazinan-2-yl)acetic acid] | < 5.30
CN1C(C(=O)Nc2ccc(F)c(Cl)c2)CC(c2ccc(F)cc2)NS1(=O)=O (stereo not drawn) [HBV-CSU-112 (Cis), Cis-N-(3-Chloro-4-fluorophenyl)-5-(4-fluorophenyl)-2-methyl-1,2,6-thiadiazinane-3-carboxamide 1,1-dioxide] | > 6.00
CN1[C@H](C(=O)Nc2ccc(F)c(Cl)c2)C[C@H](c2ccc(F)cc2)NS1(=O)=O [HBV-CSU-112-ISO-I, Cis-N-(3-Chloro-4-fluorophenyl)-5-(4-fluorophenyl)-2-methyl-1,2,6-thiadiazinane-3-carboxamide 1,1-dioxide] | > 6.00
